The results in this text go back to patent publication US9289443B2, “Pharmaceutical composition and method for preventing or treating hepatitis C” (INDUSTRIAL TECHNOLOGY RESEARCH INSTITUTE, priority 2010, dated 2016).

Series [1] is described as follows: Cell cytotoxic test (MTT) on Huh-luc/neo-ET cells. Type of series: cell-based. Particulars: human, concentration for 50% cell kill, two-day culture. The method, then: (§1) Cell Cytotoxic Test on Huh-luc/noe-ET Cells
(§2) Huh-luc/neo-ET cells with a concentration of 2.5×10^4 cells/100 μl/well were seeded into a 96 well culture plate (Corning Incorporation COSTAR, 3599) and placed into a cell incubator for culturing.
(§3) The next day, the oleanolic acid derivatives as listed in the following Tables 1 and 2 were diluted with a DMEM culture medium to the concentrations of 28.73 μg/ml, 9.57 μg/ml, 3.19 μg/ml, 1.06 μg/ml, 0.35 μg/ml, 0.11 μg/ml, 0.039 μg/ml and 0.013 μg/ml, respectively, or diluted to the concentrations of 114.92 μg/ml, 38.33 μg/ml, 12.77 μg/ml, 4.25 μg/ml, 1.42 μg/ml, 0.46 μg/ml, 0.16 μg/ml and 0.057 μg/ml, respectively. The initial medium in the 96 well culture plate was sucked out by a vacuum pump (DOAT-704AA) without removing the cells. Then, the culture medium containing the oleanolic acid derivatives were added into the 96 well culture plate containing 100 μl/well of the cells as the experiment groups, while the untreated culture mediums were added to the cells as a control.
(§4) After a two-day culture, the medium was removed and each well containing cells was washed by 100 μl of 1×PBS (1 mM KH2PO4, 10 mM Na2HPO4, 137 mM NaCl, 2.7 mM KCl) twice. Precipitates were recorded and PBS was removed. 50 μl of the medium containing 0.5 mg/ml of MTT (Sigma, M2128) was added into each well of the 96 well culture plate. The 96 well culture plate was placed in a CO2 culture incubator for 1 hour. Subsequently, 150 μl of DMSO (Riedel-de Haül, 60153) was added to each well of the 96 well culture plate and vortexed (KS shaker Type 670) to thoroughly mix the resulting purple precipitates. The 96 well culture plate was then placed in a continuous wave length microwell plate analysis system (Molecular Devices, SPECTRAMAX 190) to measure the absorbance of cells at a wavelength of 560 nm.
(§5) The average absorbance of the control was set as 100% of the cell survival rates (%) to calculate the cell survival rates (%) of the experiment groups with different concentrations of the oleanolic acid derivatives.
(§6) The cell survival rate was calculated by the following formula: Absorbance of the experiment group/Absorbance of the control×100%
(§7) The data of the cell survival rates for all experiment groups were plotted on an x-y graph to see the distribution. A trend line was obtained. […]

Series [2] deals with Huh-luc/neo-ET cells. The experiment in a line: Cell cytotoxic test (MTT) on Huh-luc/neo-ET cells. Type of series: cell-based. The settings on record: concentration for 15% cell kill, two-day culture. Here is the method:
as §1, §2, §3, §4, §5, §6, §7

Series [3] relates to HCV replicon system (Huh-luc/neo-ET cell carrying I389luc-ubi-NS3-3'/ET). The experiment in a line: Inhibition of the HCV replication by determining the firefly luciferase activity (HCV replicon system). Particulars: for inhibition at 10 µM: compound concentration 10 μM; for IC50: concentration for 50% inhibition of the HCV replication, Huh-luc/neo-ET replicon cells, read-out: IC50; for EW (CC50/IC50): ratio of CC50/IC50. Type of series: cell-based, Hepatitis C virus.
Text: HCV replicon system was used to test the effects of compounds on the treatment and prevention of hepatitis C. The HCV replicon system has been acknowledged as a screening tool for new drugs (Lohmann, V. et al., 1999, Replication of subgenomic hepatitis C virus RNAs in hepatoma cell line, Science. Vol. 285, 110-113; Bartenschlager, R. 2002, Hepatitis C virus replicons: potential role for drug development, Nature Reviews/Drug Discovery. Vol. 1, 911-916; Vorlijk, J. M. et al., 2003, A replicon-based bioassay for the measurement of interferons in patients with chronic hepatitis C, Journal of Virological Methods. 110:201-209). The HCV replicon system includes a Huh-luc/neo-ET cell carrying I389luc-ubi-NS3-3′/ET gene construct which monitors the replicative capability of the HCV. In the HCV replicon system, a firefly luciferase-ubiquitin-neomycin fusion protein is expressed by the translation of the internal ribosomal entry site (IRES) of the HCV, and the hepatitis C viral nonstructural proteins (NS3-5B), which includes protease, helicase and polymerase, are expressed by the translation of the IRES of the encephalomyocarditis virus (EMCV).
The IRES of the hepatitis C virus or the hepatitis C viral nonstructural proteins consist of a replication complex. When the replication complex is affected by the candidate compound, the activity of the HCV replicon system is inhibited and the activity of the luciferase is reduced. Accordingly, the inhibition of the HCV can be estimated by determining the activity of the intensity of the luciferase expressed by the Huh-luc/noe-ET cell.
Inhibition of the HCV Replication by Determining the Firefly Luciferase Activity
as §2
The oleanolic acid derivatives as listed in Table 2 were co-cultured with Huh-luc/neo-ET cells for 2 days. The mediums were washed twice by 100 μl of 1×PBS (1 mM KH2PO4, 10 mM Na2HPO4, 137 mM NaCl, 2.7 mM KCl) and PBS was removed. 35 μl of 1× passive lysis buffer (Promega, E1941) was added to the cells and vortexed for 10 minutes to thoroughly lysis the cells.
30 μl/well of the cell suspension was then added to a 96 well white plate (NUNC, 236108) for the measurement of the luciferase activity. Subsequently, 40 μl/well of luminescence analysis buffer and 20 μl/well of luminescence substrate (1 mM D-Luciferin) were added into the 96 well white plates. The luciferase activity (Rlu/s) was measured by a microplate luminescence meter (Berthold, MPL4) immediately.
The luciferase activity of the control was set as a standard to calculate the inhibition rates (%) of HCV of the experiment groups. The inhibition rates was calculated by the following formula: […]
After the test compounds were serial diluted and the inhibition rates of the HCV replication were determined at different concentrations, the concentration at 50% inhibition of the HCV replication (IC50) was calculated by grafit5 software (Erithacus Software).
For each experiment, 0.5 ng/ml and 0.1 ng/ml of the PEG IFN alpha-2a were used as positive controls for the IC50 test. Meanwhile, 1 μg/ml of cyclosporine A (CsA) was also used as a positive control for the IC50 test.
(In general: In antiviral work, replicon cells carry a viral genome segment that copies itself.)

Where [4] appears, read: Hepatitis C virus, Huh-luc/neo-ET, 48 h, 2 days co-culture, luciferase activity, read-out: Inhibition rate (%).

Turning to `C/C=C(/C)C(=O)OC1C(O)C(C)(C)CC2C3=CCC4C5(C)CCC(OC6OC(C(=O)O)C(O)C(OC7OCC(O)C(O)C7O)C6OC6OC(CO)C(O)C(O)C6O)C(C)(C)C5CCC4(C)C3(C)C(OC(C)=O)C(O)C21CO` (stereo not drawn) [A11], the midpoint of cytotoxicity in series [1], the CC50 at 2 days, lay at 29.8 µM. This compound also came in with a CC15 in series [2] of 6.1 µM. In addition, the inhibition (commonly the change of the read-out against control, counted positive when it falls) at 5 µM in series [3] (Hepatitis C virus, Huh-luc/neo-ET, 48 h, compound concentration 5 μM, 2 days co-culture, luciferase activity, read-out: Inhibition rate (%)) came out at 28.3 ± 9.1%.
`CC1(C)CC2C3=CCC4[C@@]5(C)CC[C@H](OC6OCC(O)C(OC7OC(CO)C(O)C(O)C7O)C6O)C(C)(C)C5CC[C@@]4(C)[C@]3(C)C[C@H](O)[C@@]2(CO)[C@H](OC(=O)c2ccccc2)C1` (stereo partly drawn) [A22]: the CC50 (usually the concentration that lowers cell viability or growth by half) at 2 days in series [1] is 40 µM. Moreover, in series [2], the CC15 was determined as 8.62 µM. The inhibition at 10 µM in series [3] (setting [4]) is -0.8 ± 5.7%.
In series [1], `C=CC(C)(O)CC/C=C(\C)C(=O)OCC1OC(OC(=O)C23CCC4(C)C(=CCC5C6(C)CCC(OC7OC(COC8OC(CO)C(O)C(O)C8O)C(OC8OCC(O)C(O)C8OC8OCC(O)C(O)C8O)C(O)C7NC(C)=O)C(C)(C)C6CCC54C)C2CC(C)(C)C(O)C3O)C(OC2OCC(OC3OCC(O)(CO)C3O)C(O)C2O)C(O)C1OC1OC(CO)C(O)C(O)C1O` (stereo not drawn) [A16] gave a CC50 at 2 days of 45.3 µM. In series [2], the CC15 amounted to 12.09 µM. In series [3] (setting [4]), the inhibition at 10 µM was 95.3 ± 0.3%. In series [3] (Hepatitis C virus), the IC50 (as a rule, the concentration that inhibits the measured activity by half) came out at 0.42 ± 0.21 µM. For the same compound, the “EW (CC50/IC50)” value in series [3] is recorded as 107.9.
Consider `C[C@@H]1OC(O[C@H]2C(OC(=O)[C@]34CCC(C)(C)C[C@H]3C3=CC[C@@H]5[C@@]6(C)C[C@H](O)[C@@H]7OC8O[C@H](CO)[C@@H](O)[C@H](O)[C@H]8OC8OC[C@H](O)[C@H](O)[C@H]8OC(=O)CC(C)(O)CC(=O)OC[C@H]7[C@@H]6CC[C@@]5(C)[C@]3(C)CC4)OC[C@H](O)[C@@H]2O)[C@H](O)[C@H](OC2OC[C@@H](O)[C@H](O)[C@H]2O)[C@H]1O` (stereo partly drawn) [A02], for which the midpoint of cytotoxicity in series [1], the CC50 at 2 days, lay at 15.2 µM. In series [2], this compound came in with a CC15 of 2.9 µM. The inhibition at 10 µM in series [3] (setting [4]) stood at 96.7 ± 0.6%. Besides, in series [3] (Hepatitis C virus), the IC50 amounted to 0.34 ± 0.06 µM. In addition, the “EW (CC50/IC50)” value in series [3] amounted to 44.71.
In turn, `C=CC(C)(O)CC/C=C(\C)C(=O)OC1C(O)C(CO)OC(OC(=O)C23CCC(C)(C)CC2C2=CCC4C5(C)CCC(OC6OC(COC7OCC(OC(C)=O)C(O)C7OC7OC(COC(C)=O)C(O)C(O)C7O)C(O)C(O)C6OC6OCC(O)C(O)C6O)C(C)(C)C5CCC4(C)C2(C)C(O)C3O)C1OC1OCC(OC2OCC(O)C(OC3OCC(O)C(O)C3O)C2O)C(O)C1O` (stereo not drawn) [A20] gave a CC50 at 2 days in series [1] of 50.2 µM. In series [2], this compound had a CC15 of 18.85 µM. The inhibition at 10 µM in series [3] (setting [4]) was 96 ± 1.5%. In addition, the IC50 in series [3] (Hepatitis C virus) stood at 0.087 ± 0.01 µM. Besides, in series [3], the “EW (CC50/IC50)” value was found to be 576.67.
